Test results: ChEMBL document CHEMBL5143537, “Quinazoline-based hydroxamic acid derivatives as dual histone methylation and deacetylation inhibitors for potential anticancer agents” (Bioorg Med Chem, 2022)
Calls of active or inactive are those of the source. The calls are words filed in the database; no cut-off is given here.

Assays:
Histone deacetylase 1 = Histone deacetylase 1 (Homo sapiens, UniProt Q13547); experiment: Inhibition of recombinant human HDAC1 expressed in baculovirus infection system using Ac-peptide-AMC as substrate preincubated for 15 mins followed by substrate addition and measured after 60 mins by fluorescence assay
Sequence of Histone deacetylase 1 (Q13547 whole entry): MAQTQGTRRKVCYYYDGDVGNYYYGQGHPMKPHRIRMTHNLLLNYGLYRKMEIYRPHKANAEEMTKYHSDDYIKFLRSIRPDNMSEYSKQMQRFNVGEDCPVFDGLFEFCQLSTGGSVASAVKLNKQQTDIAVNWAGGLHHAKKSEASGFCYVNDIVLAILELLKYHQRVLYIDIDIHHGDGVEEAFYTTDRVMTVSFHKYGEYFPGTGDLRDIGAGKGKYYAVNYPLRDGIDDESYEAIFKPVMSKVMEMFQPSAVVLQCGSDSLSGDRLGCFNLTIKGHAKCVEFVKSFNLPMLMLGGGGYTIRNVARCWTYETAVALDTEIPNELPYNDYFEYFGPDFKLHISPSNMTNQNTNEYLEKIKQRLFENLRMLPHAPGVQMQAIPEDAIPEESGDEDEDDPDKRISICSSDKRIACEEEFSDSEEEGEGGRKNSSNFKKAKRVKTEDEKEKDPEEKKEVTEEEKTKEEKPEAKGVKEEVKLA

[1] = molecular target: T1, Histone-lysine N-methyltransferase EHMT1 (Homo sapiens, UniProt Q9H9B1); experiment: Inhibition of GLP (unknown origin)
T1 sequence (Q9H9B1 whole entry): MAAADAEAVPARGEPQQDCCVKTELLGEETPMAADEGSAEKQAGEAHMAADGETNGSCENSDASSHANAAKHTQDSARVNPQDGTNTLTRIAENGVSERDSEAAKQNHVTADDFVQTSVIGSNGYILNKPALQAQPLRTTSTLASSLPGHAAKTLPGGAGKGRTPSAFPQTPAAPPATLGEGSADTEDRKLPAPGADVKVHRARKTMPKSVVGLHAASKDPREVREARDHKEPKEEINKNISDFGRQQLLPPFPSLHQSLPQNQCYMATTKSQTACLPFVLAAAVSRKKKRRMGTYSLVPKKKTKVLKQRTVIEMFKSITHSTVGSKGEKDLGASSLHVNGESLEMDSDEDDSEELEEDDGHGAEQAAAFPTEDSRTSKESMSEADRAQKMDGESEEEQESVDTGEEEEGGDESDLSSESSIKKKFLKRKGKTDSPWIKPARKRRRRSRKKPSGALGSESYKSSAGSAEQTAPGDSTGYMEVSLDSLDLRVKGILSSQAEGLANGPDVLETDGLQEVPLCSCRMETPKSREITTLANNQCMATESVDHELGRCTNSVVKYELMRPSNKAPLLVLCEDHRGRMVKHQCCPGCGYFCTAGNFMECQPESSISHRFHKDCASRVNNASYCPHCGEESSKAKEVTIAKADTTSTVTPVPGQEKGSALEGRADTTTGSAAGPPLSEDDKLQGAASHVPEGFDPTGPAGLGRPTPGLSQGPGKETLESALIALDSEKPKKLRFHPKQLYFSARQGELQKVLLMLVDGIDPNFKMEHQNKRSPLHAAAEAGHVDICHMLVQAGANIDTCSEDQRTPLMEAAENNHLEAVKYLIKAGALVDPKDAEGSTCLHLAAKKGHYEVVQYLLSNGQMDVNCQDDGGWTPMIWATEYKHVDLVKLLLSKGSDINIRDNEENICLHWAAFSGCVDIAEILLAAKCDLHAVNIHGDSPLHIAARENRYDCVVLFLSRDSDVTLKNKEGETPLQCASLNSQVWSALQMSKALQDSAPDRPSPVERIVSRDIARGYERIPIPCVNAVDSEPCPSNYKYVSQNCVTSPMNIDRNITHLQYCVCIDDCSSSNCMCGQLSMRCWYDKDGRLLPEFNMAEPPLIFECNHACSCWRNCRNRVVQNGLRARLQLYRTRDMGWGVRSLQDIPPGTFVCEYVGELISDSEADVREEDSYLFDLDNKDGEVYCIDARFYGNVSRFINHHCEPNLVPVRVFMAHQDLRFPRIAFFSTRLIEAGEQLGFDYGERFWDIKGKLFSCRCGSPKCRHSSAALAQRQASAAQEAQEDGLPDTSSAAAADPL

A-431 = experiment: Antiproliferative activity against human A-431 cells measured after 72 hrs by MTT assay; assay type: functional, cell-based; settings: A-431, 72 h
HT-29 = experiment: Antiproliferative activity against human HT-29 cells measured after 72 hrs by MTT assay; assay type: functional, cell-based; settings: HT-29, 72 h
K562 = experiment: Antiproliferative activity against human K562 cells measured after 72 hrs by MTT assay; assay type: functional, cell-based; settings: K562, 72 h
[2] = molecular target: T2, Histone-lysine N-methyltransferase EHMT1 (Homo sapiens) (UniProt Q9H9B1); experiment: Inhibition of GLP in human HepG2 cells assessed as reduction in H3K9Me2 expression at 1.25 to 20 uM measured after 24 hrs by Western blot analysis; assay type: cell-based; settings: dose 1.25-20 µM
T2 sequence (whole entry): T1 sequence (Q9H9B1 whole entry)

[3] = Effect on H3 expression in human HepG2 cells at 1.25 to 25 uM measured after 24 hrs by Western blot analysis; assay type: toxicity, cell-based; settings: hepg2, 24 h, dose 1.25-25 µM
HepG2 [4] = experiment: Induction of apoptosis in human HepG2 cells assessed as viable cells at 2.5 uM measured after 48 hrs by Annexin V-FITC/propidium iodide staining based flow cytometry (reference value: 88.58%); assay type: functional; settings: read-out: Activity
HepG2 [5] = experiment: Induction of apoptosis in human HepG2 cells assessed as early apoptotic cells at 2.5 uM measured after 48 hrs by Annexin V-FITC/propidium iodide staining based flow cytometry (reference value: 6.87%); assay type: functional
HepG2 [6] = experiment: Induction of apoptosis in human HepG2 cells assessed as viable cells at 5 uM measured after 48 hrs by Annexin V-FITC/propidium iodide staining based flow cytometry (reference value: 88.58%); assay type: functional; settings: read-out: Activity
HepG2 [7] = experiment: Induction of apoptosis in human HepG2 cells assessed as early apoptotic cells at 5 uM measured after 48 hrs by Annexin V-FITC/propidium iodide staining based flow cytometry (reference value: 6.87%); assay type: functional
HepG2 [8] = experiment: Induction of apoptosis in human HepG2 cells assessed as late apoptotic cells at 10 uM measured after 48 hrs by Annexin V-FITC/propidium iodide staining based flow cytometry (reference value: 4.55%); assay type: functional
HepG2 [9] = experiment: Induction of apoptosis in human HepG2 cells assessed as increase in cleaved caspase-7 expression at 1.25 to 20 uM measured after 48 hrs by Western blot analysis; assay type: functional, cell-based; settings: dose 1.25-20 µM
HepG2 [10] = experiment: Induction of apoptosis in human HepG2 cells assessed as increase in cleaved caspase-9 expression at 1.25 to 20 uM measured after 48 hrs by Western blot analysis; assay type: functional, cell-based; settings: dose 1.25-20 µM
HepG2 [11] = experiment: Cell cycle arrest in human HepG2 cells assessed as accumulation at G2/M phase at 5 uM measured after 48 hrs by propidium iodide staining based flow cytometry (reference value: 12.37%); assay type: functional
HepG2 [12] = experiment: Cell cycle arrest in human HepG2 cells assessed as accumulation at S phase at 5 uM measured after 48 hrs by propidium iodide staining based flow cytometry (reference value: 32.39%); assay type: functional
HepG2 [13] = experiment: Cell cycle arrest in human HepG2 cells assessed as accumulation at G2/M phase at 10 uM measured after 48 hrs by propidium iodide staining based flow cytometry (reference value: 12.37%); assay type: functional
HepG2 [14] = experiment: Cell cycle arrest in human HepG2 cells assessed as accumulation at S phase at 10 uM measured after 48 hrs by propidium iodide staining based flow cytometry (reference value: 32.39%); assay type: functional
HepG2 [15] = experiment: Cell cycle arrest in human HepG2 cells assessed as increase in p27 expression measured after 24 hrs by Western blot analysis; assay type: functional, cell-based; settings: dose 1.25-20 µM, DDE = dose-dependent effect
HepG2 [16] = experiment: Antiinvasive activity against human HepG2 cells at 20 uM measured after 24 hrs by trans-well assay; assay type: functional, cell-based; settings: DDE = dose-dependent effect
[17] = Metabolic stability in rat liver microsomes assessed as parent compound remaining at 1 uM measured after 30 mins by LC-MS/MS analysis; assay type: ADME, Microsome; settings: read-out: Stability
[18] = Metabolic stability in rat liver microsomes assessed as parent compound remaining at 1 uM measured after 45 mins by LC-MS/MS analysis; assay type: ADME, Microsome; settings: read-out: Stability

- IC50 (Histone deacetylase 1): 0.089 µM
- IC50 [1]: 0.0013 µM
- IC50 (A-431): 2.38 µM
- IC50 (HT-29): 6.99 µM
- IC50 (K562): 2.6 µM
- inhibition [2]: Active
- remaining at 0.5 h, 1 µM [17]: 26.8%
- remaining at 0.75 h, 1 µM [18]: 14.2%
Compound: COc1cc2nc(N3CCN(CCCCCC(=O)NO)CC3)nc(NC3CCN(Cc4ccccc4)CC3)c2cc1OC
- Activity [3]: Non-Toxic
- viability at 2.5 µM (HepG2 [4]): 87.5%
- Activity (HepG2 [5]): 10.22%
- viability at 5 µM (HepG2 [6]): 87.3%
- Activity (HepG2 [7]): 8.59%
- Activity (HepG2 [8]): 6.17%
- Activity (HepG2 [9]): Active
- Activity (HepG2 [10]): Active
- Activity (HepG2 [11]): 13.12%
- Activity (HepG2 [12]): 28.81%
- Activity (HepG2 [13]): 15.52%
- Activity (HepG2 [14]): 24.67%
- Activity (HepG2 [15]): Dde
- Activity (HepG2 [16]): Dde
